Columns and labels:
[1] = Maximum absorbance and emission wavelengths of the seminaphthofluorophore scaffolds; assay type: physicochemical; details: seminaphthofluorophore scaffold (without the diselenide moiety/moieties) of the compound; 10% DMSO, 100 mM phosphate buffer, pH 7.4
Description: Initial absorbance measurements were performed on a Cary Eclipse™ 50 Bio UV-Vis spectrophotometer. Fluorescence measurements were performed on a Cary Eclipse™ fluorescence spectrophotometer (Agilent Technologies, Santa Clara, CA).

[2] = Turn-on response of probe on reduction of the diselenide with dithiothreitol (DTT); details: 10 μM probe
Description: To determine if determine if probe 1 would elicit a turn-on response, dithiothreitol (DTT) was used to reduce the diselenide into the selenolate. DTT is known to reduce both disulfides and diselenides. Excitation and emission spectra were obtained for a 10 μM solution of 1 in 0.3% DMSO, 0.2% NP-40 (nonyl phenoxypolyethoxylethanol), 1 mM EDTA, and 50 mM Tris buffer, pH 7.4, initially without DTT and then with an equimolar amount of DTT (FIG. 1).
To investigate the reactivity and optical responses of probe 1, an aqueous solution of 10 μM probe 1, 10 μM DTT in 0.3% DMSO, 0.2% NP-40, 1 mM EDTA and 50 mM Tris buffer, pH 7.4 was prepared. DTT is a powerful reducing agent for both diselenides and disulfides and might be expected to react with probe 1 by a mechanism similar to the TrxR1 enzyme. […] Excitation at 531 nm afforded emission with a λmax at 580 nm, as expected for the formation of compound 2, which was also monitored by HPLC-MS.

[3] = molecular target: T1, TrxR1 from rat liver (Rattus norvegicus, UniProt O89049); assay: TrxR1 enzymatic assay and kinetic study (fluorescence increase, NADPH depletion); assay type: biochemical
T1 construct: from tissue; host or cells: rat liver
T1 sequence (O89049 1-499): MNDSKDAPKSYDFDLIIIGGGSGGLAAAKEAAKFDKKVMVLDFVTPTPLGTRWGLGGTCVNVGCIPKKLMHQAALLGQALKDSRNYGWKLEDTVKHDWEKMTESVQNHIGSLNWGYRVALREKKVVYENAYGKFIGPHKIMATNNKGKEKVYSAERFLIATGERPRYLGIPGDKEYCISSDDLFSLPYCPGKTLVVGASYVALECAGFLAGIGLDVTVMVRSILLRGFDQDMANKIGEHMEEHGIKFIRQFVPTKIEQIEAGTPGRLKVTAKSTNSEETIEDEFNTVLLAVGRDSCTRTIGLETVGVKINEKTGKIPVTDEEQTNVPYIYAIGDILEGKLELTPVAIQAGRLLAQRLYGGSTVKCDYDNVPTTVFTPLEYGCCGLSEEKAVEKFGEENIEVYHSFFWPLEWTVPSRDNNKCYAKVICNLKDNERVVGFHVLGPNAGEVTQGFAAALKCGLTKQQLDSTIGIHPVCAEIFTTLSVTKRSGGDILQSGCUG
Description: Enzymatic assays were carried out using TrxR1 from rat liver in the presence of 20 μM probe 1, 10 mM EDTA, 0.2 mg/mL BSA, and 0.24 mM NADPH in phosphate buffer (100 mM, pH 7.4). This solution was pipetted into four different wells in a 96-well plate. 0.03, 0.06 and 0.12 units of TrxR1 were added to different reaction mixtures. Control experiments were set up by omitting either probe 1, NADPH or TrxR1 from the mixtures. After all the reagents had been mixed, the wells were immediately monitored for change in fluorescence (λex=531 nm; λem=580 nm) and NADPH absorbance (λabs,max 340 nm). TrxR1 activity was monitored via fluorescence emission increase of probe 1 (λex=531 nm; λem=580 nm) as well as the depletion of NADPH (λabs=340 nm) upon incubation. Reactions were monitored in black 96-well plates with clear bottoms using a fluorescence plate reader. NADPH and TrxR1 were both required for the conversion of probe 1 to compound 2 and the concomitant turn-on emission (FIG. 2). […] The proposed mechanism for the reaction of probe 1 in the presence of TrxR1 and NADPH is shown in Scheme 7. Nucleophilic attack of the diselenide occurs through the TrxR1 […] residue. The selenolate formed attacks the carbamate carbonyl, and an oxaselenolanone heterocycle and the fluorescent probe 2 are released.
Kinetic studies were carried out for six reaction mixtures with varying amounts (1-20 μM) of probe 1 over 20 min. Reaction mixtures were made with concentrations of: TrxR1 0.12 units, 100 mM phosphate buffer, pH 7.4; 10 mM EDTA, 0.2 mg/mL BSA and 0.24 mM NADPH. 1 was added at different concentrations in the reaction mixture: 20 μM, 10 μM, 5 μM, 3 μM, 1 μM and 0 μM. The reaction was monitored through the change in fluorescence (λex=531 nm; λem=580 nm) and a fluorescence vs time graph was plotted for each substrate concentration (FIG. 3). […] The fluorescence data also was plotted as a reaction rate vs substrate concentration graph (FIG. 4).

[4] = Selectivity against other biological thiols and ions (fluorescence response); assay type: biochemical; details: 20 μM probe, 20 minutes; 100 μM Na2S, Na2SO3, Na2SO4, Na2S2O3, Hcy, Cys or 1 mM GSH; phosphate buffer pH 7.4
Description: The selectivity of TrxR1 for probe 1 was evaluated against other biological thiols and ions. Probe 1, at a concentration of 20 μM, was incubated for 20 minutes with 0.12 units TrxR1, 100 μM Na2S, 100 μM Na2SO3, 100 μM Na2SO4, 100 μM Na2S2O3, 100 μM homocysteine (Hcy), 100 μM cysteine (Cys), or 1 mM glutathione (GSH) in 100 mM phosphate buffer, pH 7.4; 10 mM EDTA, 0.2 mg/mL BSA and 0.24 mM NADPH.

[5] = test system: A375 melanoma cell line; assay: MTS cytotoxicity assay (CellTiter 96 Aqueous One Solution); assay type: cell-based; details: Homo sapiens, A-375, A375 cells
Description: (§1) MTS cytotoxicity assays for probe 1 were carried out using the CellTiter 96® Aqueous One Solution Cell Proliferation Assay (Promega Corporation, Madison, WI), with A375 and SK-MEL-5 melanoma cell lines. The following treatment groups were made:
(§2) The IC50 is the probe concentration required to kill 50% of the cells in the specified time period.

[6] = test system: SK-MEL-5 melanoma cell line; assay: as above; assay type: cell-based; details: Homo sapiens, SK-MEL-5 cells
Description: as §1, §2

[7] = equimolar DTT, 0.3% DMSO, 0.2% NP-40, 1 mM EDTA, 50 mM Tris buffer, pH 7.4

What does the source list for `COc1cccc2ccc3c(c12)Oc1cc(NC(=O)OCC[Se][Se]CCO)ccc1C31OC(=O)c2ccccc21` (stereo not drawn) [Probe 1]?
λmax, abs (nm) [1]: 531 nm; λmax, em (nm) [1]: 580 nm; Emission λmax after addition of DTT ([2]; 10 μM DTT, Tris buffer pH 7.4, excitation at 531 nm, formation of compound 2): 580 nm; Colour change of solution with DTT [2, 7]: colorless to red; Fluorescence turn-on response with DTT [2, 7]: instantaneous turn-on response; Time at which fluorescence intensity began to plateau ([3]; 20 μM probe, 0.12 units TrxR, 0.24 mM NADPH, phosphate buffer pH 7.4, λex 531 nm, λem 580 nm): 20 min; Fluorescence in the absence of NADPH or TrxR ([3]; 20 μM probe, control omitting NADPH or TrxR1): no fluorescence was observed; Km ([3]; 1-20 μM probe, 0.12 units TrxR1, 0.24 mM NADPH, 100 mM phosphate buffer pH 7.4, 20 min): 15.9 µM; Change in fluorescence with other thiols and ions compared with TrxR1 [4]: None afforded a significant change in fluorescence; IC50 ([5]; 24 hours): 3530 nM; IC50 ([5]; 48 hours): 2230 nM; IC50 ([5]; 72 hours): 2550 nM; IC50 ([6]; 24 hours): 4.77 µM; IC50 ([6]; 48 hours): 3.1 µM; IC50 ([6]; 72 hours): 2.3 µM

From patent US12358923B2, “Seminaphthofluorophore-selenium probes for thioredoxin reductase” (Portland State University, priority 2019, dated 2025)
